# Assay results from patent publication US6495525B1, “VLA-4 inhibitor: oMePUPA-V” (Biogen, Inc., priority 1998, dated 2002).
# How the values were obtained:
# [1] = test system: Ascaris suum-sensitive sheep; experiment: Single dose irritancy, airways resistance after aerosol in sheep; type: in vivo; conditions: single aerosol doses 0.01-3 mg
# Description: FIG. 2: Sheep, naturally sensitive to Ascaris suum, were challenged with an aerosol administration of oMePUPA-V at the doses indicated or an aerosol of Ascaris suum. Changes in airways resistance were measured following aerosol challenge and peak specific lung resistance (cm H2O/sec) after challenge was compared to baseline values. *=p<0.05 compared to PBS control, one-way analysis of variance, followed by Dunnett's test for multiple comparison to a control group. Indicates a statistically significant increase in peak specific lung resistance compared to PBS control group.
# gpIIbIIIa = target: T1, gpIIbIIIa (Homo sapiens, UniProt P05106+P08514); experiment: Platelet aggregation induced by ADP in platelet rich plasma; type: cell-based
# T1 construct: from tissue; host or cells: platelet rich plasma
# Description: Activity against gpIIbIIIa was assessed by means of standard platelet aggregometry using platelet rich plasma. ADP was used to initiate aggregation in the presence of plasma where Ca^+2 and Mg^+2 are the major divalent cations. GRGDSP @ 100 ug/mL was used as a positive control.
# [2] = test system: mouse contact hypersensitivity; experiment: DNFB contact hypersensitivity model, ear swelling; type: in vivo, mice; conditions: 0.03 or 0.3 mg/kg enterally 4 hours after DNFB challenge, measured 24 hours after challenge
# Description: Twenty gram female virus-free Balb/c mice (Jackson Laboratories, Bar Harbor, Me.) housed four to a cage in microisolator cages in Biogen's virus-free animal facility and receiving ad libitum mouse chow and tap water were used for all studies. Mice were anesthetized with ketamine:xylazine (90:10 mg/kg, i.p.). A 3 cm^2 patch of abdominal skin, xiphoid to pubis was exposed by closely shaving the far and the skin was scrubbed with 70% ethanol. A 25 μL volume of 0.5% DNFB in 4:1 v/v acetone:olive oil vehicle is uniformly applied to the bare abdominal skin. The skin was lightly scratched with the applying pipette tip to encourage mild inflammation. […] Twenty four hours after challenge, mice were again anesthetized with ketamine:xylazine and the ear thickness of both ears measured with an engineer's micrometer to an accuracy of 10^−4 inches.
# Compounds (100 μL) or appropriate vehicle (Dimethylsulfoxide [DMSO] in isotonic phosphate buffered saline [PBS], 100 μL) were administered orally by gavage 4 hours after challenging the immune response on Day 5. […] The ear swelling response for each mouse was calculated as the difference between its vehicle- and DNFB-challenged ear thickness at 24 hours after challenge. […] Inhibition of the ear swelling response was determined by comparison of treated groups with their vehicle control group. […] Values are expressed as means ± standard error of the mean (SEM).
# T1 sequence (P08514 32-887 limits assumed): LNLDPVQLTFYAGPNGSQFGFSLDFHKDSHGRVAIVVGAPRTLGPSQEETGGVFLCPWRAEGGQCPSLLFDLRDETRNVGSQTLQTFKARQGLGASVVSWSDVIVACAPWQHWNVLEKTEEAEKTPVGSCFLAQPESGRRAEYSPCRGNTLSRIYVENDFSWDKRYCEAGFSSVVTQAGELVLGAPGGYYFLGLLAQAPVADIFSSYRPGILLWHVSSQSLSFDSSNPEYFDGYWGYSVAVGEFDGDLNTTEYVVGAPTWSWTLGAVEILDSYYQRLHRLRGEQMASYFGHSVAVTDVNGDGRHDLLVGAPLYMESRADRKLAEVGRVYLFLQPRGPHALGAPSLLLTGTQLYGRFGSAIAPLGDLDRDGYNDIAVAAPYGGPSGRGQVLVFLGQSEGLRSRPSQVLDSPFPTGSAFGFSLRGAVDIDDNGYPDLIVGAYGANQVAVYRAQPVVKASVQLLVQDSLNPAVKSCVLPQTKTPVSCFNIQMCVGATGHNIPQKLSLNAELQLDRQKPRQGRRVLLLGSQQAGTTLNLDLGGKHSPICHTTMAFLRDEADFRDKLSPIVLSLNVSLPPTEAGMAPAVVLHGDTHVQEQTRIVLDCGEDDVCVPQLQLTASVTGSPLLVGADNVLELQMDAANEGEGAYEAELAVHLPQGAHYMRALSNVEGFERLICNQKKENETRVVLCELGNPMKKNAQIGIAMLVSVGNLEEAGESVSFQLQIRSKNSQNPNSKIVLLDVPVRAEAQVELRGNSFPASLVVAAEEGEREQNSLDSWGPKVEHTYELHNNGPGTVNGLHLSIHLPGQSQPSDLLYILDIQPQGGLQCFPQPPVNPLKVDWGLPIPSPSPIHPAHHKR
# T1 sequence (P08514 891-1039 partner limits assumed): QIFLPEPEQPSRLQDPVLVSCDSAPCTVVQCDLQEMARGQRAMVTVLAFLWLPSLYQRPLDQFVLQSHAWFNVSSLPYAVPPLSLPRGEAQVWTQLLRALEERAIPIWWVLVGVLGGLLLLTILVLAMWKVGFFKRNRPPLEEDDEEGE
# T1 sequence (P05106 27-788): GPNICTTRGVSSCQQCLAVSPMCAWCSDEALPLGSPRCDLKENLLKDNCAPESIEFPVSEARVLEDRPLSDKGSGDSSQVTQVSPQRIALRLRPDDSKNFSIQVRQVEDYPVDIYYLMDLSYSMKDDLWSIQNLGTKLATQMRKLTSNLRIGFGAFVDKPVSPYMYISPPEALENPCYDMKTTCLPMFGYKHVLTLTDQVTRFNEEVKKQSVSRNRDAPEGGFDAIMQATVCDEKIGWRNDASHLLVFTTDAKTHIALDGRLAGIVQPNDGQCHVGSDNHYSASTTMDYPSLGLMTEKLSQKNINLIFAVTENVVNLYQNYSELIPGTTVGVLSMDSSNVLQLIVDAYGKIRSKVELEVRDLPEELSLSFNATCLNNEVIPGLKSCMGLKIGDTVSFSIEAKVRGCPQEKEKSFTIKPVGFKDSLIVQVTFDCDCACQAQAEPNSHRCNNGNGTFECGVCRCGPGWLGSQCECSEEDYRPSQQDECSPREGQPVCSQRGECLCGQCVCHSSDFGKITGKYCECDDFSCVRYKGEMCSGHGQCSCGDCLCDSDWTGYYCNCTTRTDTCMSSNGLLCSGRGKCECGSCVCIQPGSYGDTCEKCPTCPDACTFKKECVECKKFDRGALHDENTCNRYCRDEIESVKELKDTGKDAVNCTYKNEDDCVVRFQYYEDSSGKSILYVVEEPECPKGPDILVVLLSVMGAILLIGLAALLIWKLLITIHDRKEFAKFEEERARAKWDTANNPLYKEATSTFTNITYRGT
structure (smiles),measurement,setting,value
Cc1ccccc1NC(=O)Nc1ccc(CC(=O)N2CCC[C@H]2C(=O)N[C@H](C)CC(=O)O)cc1 [oMePUPA-V],"irritant effect, change in airways resistance compared to baseline",[1],lack of change in airways resistance compared to baseline resistance
same,measurable activity against gpIIbIIIa,gpIIbIIIa,> 100 µM
same,"inhibition, platelets (IIbIIIa) fibrinogen aggregation","gpIIbIIIa; @ 100 μM, Ca+2/Mg+2",no inhibition @
same,inhibition of ADP-induced platelet aggregation (in words),"gpIIbIIIa; three doses 1, 10 and 100 μM",did not inhibit
same,inhibition of ear swelling response (in words),[2],significantly inhibited
